Experimental data reported in ChEMBL document CHEMBL5291721, “A preclinical secondary pharmacology resource illuminates target-adverse drug reaction associations of marketed drugs” (Nat Commun, 2023).

Key:
[1] = target: T1, Muscarinic acetylcholine receptor M1 (Homo sapiens, UniProt P11229); assay type: functional
T1 sequence (P11229 whole entry): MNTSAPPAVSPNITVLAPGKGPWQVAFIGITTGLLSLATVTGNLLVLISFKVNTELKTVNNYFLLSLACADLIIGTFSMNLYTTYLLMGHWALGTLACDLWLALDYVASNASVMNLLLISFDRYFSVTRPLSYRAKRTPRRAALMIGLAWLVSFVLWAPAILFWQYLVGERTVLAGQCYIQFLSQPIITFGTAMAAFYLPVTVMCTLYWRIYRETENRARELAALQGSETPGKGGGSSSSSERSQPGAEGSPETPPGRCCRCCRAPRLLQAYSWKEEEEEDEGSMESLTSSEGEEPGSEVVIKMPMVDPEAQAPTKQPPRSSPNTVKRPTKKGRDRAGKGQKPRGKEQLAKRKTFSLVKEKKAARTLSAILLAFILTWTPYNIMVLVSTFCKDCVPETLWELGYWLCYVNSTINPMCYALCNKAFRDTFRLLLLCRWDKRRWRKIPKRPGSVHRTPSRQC

[2] = target: Beta-1 adrenergic receptor (Homo sapiens, UniProt P08588); assay type: functional
Beta-1 adrenergic receptor, sequence (P08588 whole entry): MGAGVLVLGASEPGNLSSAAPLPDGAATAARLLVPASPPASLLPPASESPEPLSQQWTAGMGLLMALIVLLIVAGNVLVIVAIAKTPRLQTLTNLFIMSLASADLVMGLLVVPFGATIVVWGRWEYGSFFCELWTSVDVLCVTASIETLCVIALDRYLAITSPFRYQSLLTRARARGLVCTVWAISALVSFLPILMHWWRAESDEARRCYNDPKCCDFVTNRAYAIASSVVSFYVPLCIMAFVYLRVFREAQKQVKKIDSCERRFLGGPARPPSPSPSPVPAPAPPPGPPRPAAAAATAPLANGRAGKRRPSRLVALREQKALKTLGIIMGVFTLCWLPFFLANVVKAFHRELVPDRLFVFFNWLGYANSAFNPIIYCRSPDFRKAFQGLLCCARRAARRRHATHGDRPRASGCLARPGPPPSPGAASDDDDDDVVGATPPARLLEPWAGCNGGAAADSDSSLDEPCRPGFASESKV

[3] = target: T2, Alpha-2A adrenergic receptor (Homo sapiens, UniProt P08913); assay type: functional, cell-based
T2 sequence (P08913 whole entry): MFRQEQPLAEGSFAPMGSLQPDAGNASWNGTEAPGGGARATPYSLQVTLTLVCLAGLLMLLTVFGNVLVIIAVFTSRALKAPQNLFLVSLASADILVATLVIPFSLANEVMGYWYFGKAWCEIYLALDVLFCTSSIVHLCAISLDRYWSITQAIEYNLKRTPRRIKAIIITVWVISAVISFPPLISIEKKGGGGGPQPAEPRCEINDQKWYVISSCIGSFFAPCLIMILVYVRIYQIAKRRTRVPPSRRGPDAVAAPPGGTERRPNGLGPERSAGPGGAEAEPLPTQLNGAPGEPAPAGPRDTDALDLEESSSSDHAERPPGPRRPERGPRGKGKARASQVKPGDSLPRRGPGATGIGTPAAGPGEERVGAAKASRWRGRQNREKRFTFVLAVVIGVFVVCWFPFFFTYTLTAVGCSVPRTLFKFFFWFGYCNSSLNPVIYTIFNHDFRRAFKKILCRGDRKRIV

D(3) dopamine receptor = D(3) dopamine receptor (Homo sapiens, UniProt P35462)
D(3) dopamine receptor, sequence (P35462 whole entry): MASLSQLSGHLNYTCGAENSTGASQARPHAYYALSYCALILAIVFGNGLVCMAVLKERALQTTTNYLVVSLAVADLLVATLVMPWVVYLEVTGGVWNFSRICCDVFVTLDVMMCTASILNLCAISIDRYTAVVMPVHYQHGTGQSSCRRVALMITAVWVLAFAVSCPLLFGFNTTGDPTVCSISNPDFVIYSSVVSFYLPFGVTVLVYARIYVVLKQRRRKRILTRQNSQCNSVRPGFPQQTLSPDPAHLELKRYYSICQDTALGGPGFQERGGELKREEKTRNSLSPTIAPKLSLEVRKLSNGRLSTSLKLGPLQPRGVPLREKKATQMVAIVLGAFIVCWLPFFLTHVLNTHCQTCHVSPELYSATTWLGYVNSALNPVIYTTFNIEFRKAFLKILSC

[4] = target: T3, Alpha-1A adrenergic receptor (Homo sapiens, UniProt P35348); assay type: functional, cell-based
T3 sequence (P35348 whole entry): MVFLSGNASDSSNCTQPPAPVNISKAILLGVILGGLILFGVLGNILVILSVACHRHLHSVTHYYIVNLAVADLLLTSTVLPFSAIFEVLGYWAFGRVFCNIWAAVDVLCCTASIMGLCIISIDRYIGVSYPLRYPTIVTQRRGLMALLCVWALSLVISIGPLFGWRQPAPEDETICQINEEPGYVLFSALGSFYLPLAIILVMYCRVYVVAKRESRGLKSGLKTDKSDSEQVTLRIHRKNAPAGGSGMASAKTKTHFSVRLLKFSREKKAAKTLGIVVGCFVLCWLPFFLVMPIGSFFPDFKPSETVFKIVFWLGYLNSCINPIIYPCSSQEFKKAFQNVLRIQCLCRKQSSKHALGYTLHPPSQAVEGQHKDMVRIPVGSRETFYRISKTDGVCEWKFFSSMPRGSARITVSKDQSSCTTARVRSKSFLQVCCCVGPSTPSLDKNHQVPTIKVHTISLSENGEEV

[5] = target: T4, 5-hydroxytryptamine receptor 2C (Homo sapiens, UniProt P28335)
T4 sequence (P28335 whole entry): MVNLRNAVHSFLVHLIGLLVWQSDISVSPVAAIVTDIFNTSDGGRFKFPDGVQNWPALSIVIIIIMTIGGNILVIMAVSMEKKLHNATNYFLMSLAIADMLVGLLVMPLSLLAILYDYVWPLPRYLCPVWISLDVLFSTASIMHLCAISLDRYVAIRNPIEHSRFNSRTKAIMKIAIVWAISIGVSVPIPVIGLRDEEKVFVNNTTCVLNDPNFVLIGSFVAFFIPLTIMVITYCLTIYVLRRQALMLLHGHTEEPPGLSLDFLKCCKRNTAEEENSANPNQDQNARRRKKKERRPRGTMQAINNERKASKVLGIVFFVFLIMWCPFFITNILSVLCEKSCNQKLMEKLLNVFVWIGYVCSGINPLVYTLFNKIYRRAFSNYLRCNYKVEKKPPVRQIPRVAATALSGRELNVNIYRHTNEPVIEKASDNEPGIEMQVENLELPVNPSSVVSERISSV

Vasopressin V1a receptor = Vasopressin V1a receptor (Homo sapiens, UniProt P37288)
Vasopressin V1a receptor, sequence (P37288 whole entry): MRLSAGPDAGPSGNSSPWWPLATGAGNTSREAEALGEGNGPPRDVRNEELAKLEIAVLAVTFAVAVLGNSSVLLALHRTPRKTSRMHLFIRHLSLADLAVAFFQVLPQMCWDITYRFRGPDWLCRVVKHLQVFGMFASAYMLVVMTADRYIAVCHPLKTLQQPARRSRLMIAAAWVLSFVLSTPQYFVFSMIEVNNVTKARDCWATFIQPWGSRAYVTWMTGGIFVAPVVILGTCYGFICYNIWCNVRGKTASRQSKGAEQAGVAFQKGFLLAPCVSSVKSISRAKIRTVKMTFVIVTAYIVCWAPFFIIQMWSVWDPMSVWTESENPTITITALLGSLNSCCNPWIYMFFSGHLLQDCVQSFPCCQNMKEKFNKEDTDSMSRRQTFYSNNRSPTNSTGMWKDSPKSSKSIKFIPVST

[6] = target: Delta-type opioid receptor (Homo sapiens, UniProt P41143)
Delta-type opioid receptor, sequence (P41143 whole entry): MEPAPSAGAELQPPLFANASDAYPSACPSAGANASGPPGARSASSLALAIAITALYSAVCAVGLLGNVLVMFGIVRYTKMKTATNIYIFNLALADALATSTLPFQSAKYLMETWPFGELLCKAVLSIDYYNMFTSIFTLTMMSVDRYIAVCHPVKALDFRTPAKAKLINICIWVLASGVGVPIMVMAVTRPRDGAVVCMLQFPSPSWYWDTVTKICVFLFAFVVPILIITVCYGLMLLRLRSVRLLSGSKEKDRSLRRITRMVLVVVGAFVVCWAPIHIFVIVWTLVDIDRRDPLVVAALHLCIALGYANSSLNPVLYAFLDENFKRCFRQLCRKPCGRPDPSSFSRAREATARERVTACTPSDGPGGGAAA

[7] = target: Voltage-gated inwardly rectifying potassium channel KCNH2 (Homo sapiens, UniProt Q12809); assay type: functional; conditions: read-out: AC50
Voltage-gated inwardly rectifying potassium channel KCNH2, sequence (Q12809 whole entry): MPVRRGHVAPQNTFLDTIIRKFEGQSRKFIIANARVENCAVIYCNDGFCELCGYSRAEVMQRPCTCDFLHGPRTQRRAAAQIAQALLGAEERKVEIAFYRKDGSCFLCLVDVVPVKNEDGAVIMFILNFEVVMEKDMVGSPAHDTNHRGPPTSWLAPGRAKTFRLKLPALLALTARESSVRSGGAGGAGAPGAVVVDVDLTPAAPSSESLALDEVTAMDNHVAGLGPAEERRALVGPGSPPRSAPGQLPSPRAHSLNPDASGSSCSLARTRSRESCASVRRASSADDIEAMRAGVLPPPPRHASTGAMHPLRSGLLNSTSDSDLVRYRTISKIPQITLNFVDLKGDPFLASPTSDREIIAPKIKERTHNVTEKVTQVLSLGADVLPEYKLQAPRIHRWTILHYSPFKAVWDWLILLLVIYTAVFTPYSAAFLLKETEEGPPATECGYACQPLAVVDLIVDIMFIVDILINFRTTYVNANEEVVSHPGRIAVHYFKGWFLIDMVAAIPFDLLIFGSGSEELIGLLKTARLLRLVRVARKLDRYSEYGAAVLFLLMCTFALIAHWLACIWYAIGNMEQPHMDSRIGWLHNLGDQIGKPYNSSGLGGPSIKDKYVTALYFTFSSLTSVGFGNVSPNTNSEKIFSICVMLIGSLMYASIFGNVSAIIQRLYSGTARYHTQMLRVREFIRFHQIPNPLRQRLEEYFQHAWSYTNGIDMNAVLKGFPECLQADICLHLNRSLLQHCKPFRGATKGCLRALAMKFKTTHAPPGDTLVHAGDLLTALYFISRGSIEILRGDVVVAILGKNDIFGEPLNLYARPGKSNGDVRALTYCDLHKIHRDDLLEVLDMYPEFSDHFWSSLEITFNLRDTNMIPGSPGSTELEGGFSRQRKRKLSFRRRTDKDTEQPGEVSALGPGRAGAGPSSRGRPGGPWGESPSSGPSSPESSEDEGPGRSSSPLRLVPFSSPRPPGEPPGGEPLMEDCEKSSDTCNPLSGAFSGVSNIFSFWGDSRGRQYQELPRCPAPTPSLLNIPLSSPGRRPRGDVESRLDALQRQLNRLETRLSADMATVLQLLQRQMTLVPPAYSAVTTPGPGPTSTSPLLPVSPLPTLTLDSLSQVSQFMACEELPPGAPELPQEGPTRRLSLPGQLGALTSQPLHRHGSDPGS

Estrogen receptor = target: T5, Estrogen receptor (Homo sapiens, UniProt P03372)
T5 sequence (P03372 whole entry): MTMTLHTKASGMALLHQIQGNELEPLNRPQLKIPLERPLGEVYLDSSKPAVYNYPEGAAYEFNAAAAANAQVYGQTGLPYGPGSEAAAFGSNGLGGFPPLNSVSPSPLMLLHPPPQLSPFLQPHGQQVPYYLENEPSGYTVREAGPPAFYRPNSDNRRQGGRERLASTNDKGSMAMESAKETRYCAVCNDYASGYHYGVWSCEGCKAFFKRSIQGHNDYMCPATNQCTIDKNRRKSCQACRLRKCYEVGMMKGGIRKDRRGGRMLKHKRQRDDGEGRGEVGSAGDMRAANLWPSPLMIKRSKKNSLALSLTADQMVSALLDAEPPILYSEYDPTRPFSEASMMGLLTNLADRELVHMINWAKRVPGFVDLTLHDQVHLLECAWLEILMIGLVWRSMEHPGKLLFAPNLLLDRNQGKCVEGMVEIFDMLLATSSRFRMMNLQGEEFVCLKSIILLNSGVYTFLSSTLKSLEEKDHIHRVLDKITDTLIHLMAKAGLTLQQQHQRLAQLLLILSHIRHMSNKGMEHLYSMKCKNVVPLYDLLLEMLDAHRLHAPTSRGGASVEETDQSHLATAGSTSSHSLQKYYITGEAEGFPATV
Further: assay procedure not described here.

SMILES | AC50 [1] [µM] | AC50 [2] [µM] | AC50 [3] [µM] | AC50 (D(3) dopamine receptor) [µM] | AC50 [4] [µM] | AC50 [5] [µM] | AC50 (Vasopressin V1a receptor) [µM] | AC50 [6] [µM] | AC50 [7] [µM] | AC50 (Estrogen receptor) [µM]
CN1CCCN=C1/C=C/c1cccc(O)c1 [OXANTEL] | > 30 | > 30 | > 30 | > 30 | > 30 | > 30 | > 30 | > 30 | 6.2 | 
COC(=O)c1ccc2c(c1)NC(=O)/C2=C(\Nc1ccc(N(C)C(=O)CN2CCN(C)CC2)cc1)c1ccccc1 [NINTEDANIB] | > 30 | > 30 | > 30 | > 30 | > 30 | 25 | > 30 | > 30 | 9.1 | 
CCc1ccc(C(=O)C(C)CN2CCCCC2)cc1 (stereo unspecified) [EPERISONE] |  | > 30 | > 30 | 9.4 | > 30 | > 30 |  | 19 | 1.57 | 
N=C(N)NC(=O)Cc1c(Cl)cccc1Cl [GUANFACINE] |  | > 10 |  | 20 |  | 10 | > 30 | > 30 | > 30 | 
CC(=O)OCC1=C(C(=O)O)N2C(=O)[C@@H](NC(=O)CSc3ccncc3)[C@H]2SC1 [CEPHAPIRIN] | > 10 | > 10 | > 10 | > 30 |  | > 30 | > 10 | > 30 | > 30 | 
CC(NC(C)(C)C)C(=O)c1cccc(Cl)c1 (stereo unspecified) [BUPROPION] |  | > 10 | > 10 | > 10 | > 30 | > 30 | > 10 | > 10 |  | 
CC1=C(CC(=O)O)c2cc(F)ccc2/C1=C\c1ccc([S+](C)[O-])cc1 (stereo unspecified) |  | > 10 | > 10 | > 30 | > 30 | > 30 | > 30 | > 30 | > 30 | 
CCC1(C)CC(=O)NC1=O (stereo unspecified) [ETHOSUXIMIDE] |  | > 10 | > 10 | > 30 |  | > 30 |  | > 30 | > 30 | > 10
CC1CC(OC(=O)C(O)c2ccccc2)CC(C)(C)C1 (stereo unspecified) [CYCLANDELATE] |  | > 10 | > 10 | > 30 |  | > 30 |  | > 30 | > 30 | > 30
CN(Cc1ccc(C(C)(C)C)cc1)Cc1cccc2ccccc12 [BUTENAFINE] |  | > 10 | > 10 | > 30 |  | > 30 |  | > 30 | 2.8 | > 30
Nc1ccc(S(=O)(=O)Nc2ncccn2)cc1 [SULFADIAZINE] |  | > 10 | > 10 | > 30 |  | > 30 |  | > 30 | > 30 | 
CCCCCCOC(=O)NC(=N)c1ccc(NCc2nc3cc(C(=O)N(CCC(=O)OCC)c4ccccn4)ccc3n2C)cc1 [DABIGATRAN ETEXILATE] | > 30 | > 30 | > 30 | > 30 | > 30 | > 30 | > 30 | > 30 |  | 
CO/N=C(\C(=O)N[C@@H]1C(=O)N2C(C(=O)[O-])=C(C[n+]3ccc(N)n3CCO)CS[C@H]12)c1csc(N)n1 [CEFOSELIS] | > 30 | > 30 | > 30 | > 30 | 30 | > 30 | > 30 | > 30 | > 30 | 
COc1cc(N)cn[n+]1-c1ccccc1 [AMEZINIUM METILSULFATE] | > 30 | > 30 | > 30 | > 30 | 25 | > 30 | > 30 | > 30 | 3.8 | 
CNCCc1ccccn1 [BETAHISTINE] |  |  | > 30 | > 30 | > 30 | > 30 |  | > 30 | > 30 | 
CC(=O)OCC1=C(C(=O)O)N2C(=O)[C@@H](NC(=O)Cc3cccs3)[C@H]2SC1 [CEPHALOTHIN] | > 30 | > 30 | > 30 | > 30 | > 30 | > 30 | > 30 | > 30 | > 30 | 
CCN(CC)CC(=O)Nc1c(C)cccc1C [LIDOCAINE] |  |  |  |  |  |  | > 10 |  |  | 
CCN(CC)Cc1nccn1-c1ccc([N+](=O)[O-])cc1C(=O)c1ccccc1Cl [NIZOFENONE] | > 30 | > 30 | > 30 | > 30 | > 30 | > 30 | > 30 | > 30 | 1.38 | 
CC(=O)Oc1cccc2c1C(=O)c1c(OC(C)=O)cc(C(=O)O)cc1C2=O [DIACEREIN] | 19 | > 30 |  | > 30 | 13 | > 30 | 25 | > 30 | > 30 | 
COc1ccc(-n2nc(C(N)=O)c3c2C(=O)N(c2ccc(N4CCCCC4=O)cc2)CC3)cc1 [APIXABAN] | > 30 | > 30 | > 30 | > 30 | > 30 | > 30 | > 30 | > 30 | > 30 | 
CCC(NC(C)C)C(O)c1ccc(O)c(O)c1 (stereo unspecified) [ISOETHARINE] | > 30 |  | > 30 | > 30 |  | > 30 | > 30 | > 30 | > 30 | 
COc1nc(C)nc(Cl)c1N=C1NCCN1 [MOXONIDINE] |  | > 30 |  | > 30 |  | > 30 |  | > 30 | > 30 | 
